Columns and labels:
JAK2 = biological target: T1, JAK2 (Homo sapiens, UniProt O60674); experiment: Competition binding assay, JAK2; details: read-out: Binding Assay: JAK2 (active_KD)
T1 construct: made in house
Source text: (§1) Competition Binding Assay to Determine Binding Constants (Kd) of the Compounds Against JAK Kinases
(§2) Competition binding assays used herein were developed, validated and performed as described in Fabian et al., Nature Biotechnology 2005, 23,329-336. Kinases were produced as fusions to T7 phage (See, Fabian et al. or WO04/015142) or alternatively, the kinases were expressed in HEK-293 cells and subsequently tagged with DNA for PCR detection (See, WO08/005310). For the binding assays, streptavidin-coated magnetic beads were treated with biotinylated affinity ligands for 30 min at rt to generate affinity resins. The liganded beads were blocked with excess biotin and washed with blocking buffer (SeaBlock (Pierce), 1% BSA, 0.05% Tween 20, 1 mM DTT) to remove unbound ligand and to reduce non-specific binding. […] Test compounds were prepared as 100× stocks in DMSO and rapidly diluted into the aqueous environment. DMSO was added to control assays lacking a test compound. Primary screen interactions were performed in polypropylene 384-well plates in a final volume of 34 μL, while Kd determinations were performed in polystyrene 96-well plates in a final volume of 135 μL. […] The kinase concentration in the eluates was measured by quantitative PCR. Each kinase was tested individually against each compound. Kds were determined using eleven serial threefold dilutions. A selectivity score, which is a quantitative measure of selectivity of a compound against a panel of enzymes, may be calculated for a compound by dividing the number of enzymes for which a compound meets a set criteria, (for example, a binding constant of 100 nM or less), by the total number of enzymes tested.

JAK3 = biological target: T2, JAK3 (Homo sapiens, UniProt P52333); experiment: Competition binding assay, JAK3; details: read-out: Binding Assay: JAK3 (active_KD, ENZ)
T2 construct: made in house
Source text: as §1, §2

[1] = test system: csTF-1 cells (GM-CSFR/JAK2/STAT5 pathway); experiment: csTF-1 cell-based reporter assay; parameters: species or system human; details: Homo sapiens; GM-CSF at 2 ng/mL, 4 hours; read-out: Cell Assay: CS0017: CS TF-1 reporter assay: IC50
Protocol: csTF-1 Cell-based Reporter Assay
csTF-1 cells are derived from the human erythroleukemia cell line that is growth dependent on GM-CSF and has an intact GM-CSFR/JAK2/STAT5 pathway. The cell line contains stably integrated beta-lactamase reporter gene under the control of the […] (irf 1) response element recognized by the activated transcription factor STATS. csTF-1 cells (Invitrogen K1219) were washed with assay media (97% OPTIMEM/0.5% dialyzed FBS/0.1 mM NEAA/1 mM Na pyr/P/S) and seeded in the same media at 5×10^5 cell/mL in T150 flask. After 16 hour incubation, cells were seeded at 2×10^5 cell/well in 50 μl volume, into Costar, clear bottom, 96-well assay plates. Serial dilutions of compounds were added to the plates with final DMSO concentration at 0.5% and GM-CSF at 2 ng/mL and the plates were then incubated at […] and 5% CO2 for 4 hours. The plates were brought to room temperature before adding Substrate Mixture according to manufacturer's protocol (Invitrogen, Catalog #K1085). The assay plates containing the substrate mixture were incubated in the dark at room temperature for 2 hours. Blue and green fluorescence was measured with excitation at 409 nm and emission at 460 nm (for blue) and excitation at 409 nm and emission at 530 nm (for green) using Spectra Max Gemini EM.

T1 sequence (O60674 849-1124 limits assumed): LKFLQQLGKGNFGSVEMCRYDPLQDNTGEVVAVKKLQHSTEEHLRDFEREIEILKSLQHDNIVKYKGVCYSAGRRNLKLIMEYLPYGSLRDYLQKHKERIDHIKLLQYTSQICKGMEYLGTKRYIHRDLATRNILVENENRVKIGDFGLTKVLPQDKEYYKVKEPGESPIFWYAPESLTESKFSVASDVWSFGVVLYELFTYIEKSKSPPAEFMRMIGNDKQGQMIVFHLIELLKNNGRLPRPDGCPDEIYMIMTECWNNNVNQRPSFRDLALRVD
T2 sequence (P52333 822-1111 limits assumed): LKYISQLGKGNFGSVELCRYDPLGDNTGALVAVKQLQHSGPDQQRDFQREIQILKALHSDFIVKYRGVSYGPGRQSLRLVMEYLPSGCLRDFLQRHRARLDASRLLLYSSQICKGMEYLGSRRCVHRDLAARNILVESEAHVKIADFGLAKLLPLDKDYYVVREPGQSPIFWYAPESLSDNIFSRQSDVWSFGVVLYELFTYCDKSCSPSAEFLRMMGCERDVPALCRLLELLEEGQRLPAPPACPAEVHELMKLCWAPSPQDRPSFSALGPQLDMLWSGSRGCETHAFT

Structure (SMILES) | Kd (JAK2) | Kd (JAK3) | IC50 [1]
Cc1cc(Nc2nc(C(=O)c3ccc(F)c(O)c3)nc3ccccc23)n[nH]1 [Example 77, (4-fluoro-3-hydroxyphenyl)(4-(5-methyl-1H-pyrazol-3-ylamino)quinazolin-2-yl)methanone] | > 0.01 µM | – | –
Cc1cc(Nc2nc(C3(c4ccc(F)cc4)OCCO3)nc3ccccc23)n[nH]1 [Example 59, 2-(2-(4-fluorophenyl)-1,3-dioxolan-2-yl)-N-(5-methyl-1H-pyrazol-3-yl)quinazolin-4-amine] | ≤ 0.001 µM | 0.01 to 0.1 µM | ≤ 0.1 µM
Cc1cc(Nc2nc(C(O)c3ccc(F)c(Cl)c3)nc3ccccc23)n[nH]1 (stereo not shown) [Example 67, (3-chloro-4-fluorophenyl)(4-(5-methyl-1H-pyrazol-3-ylamino)quinazolin-2-yl)methanol] | ≤ 0.001 µM | ≤ 0.01 µM | 0.1 to 0.5 µM
O=C(c1ccc(F)cc1)c1nc(Nc2cc[nH]n2)c2ccc(I)cc2n1 [Example 22, (4-(1H-pyrazol-3-ylamino)-7-iodoquinazolin-2-yl)(4-fluorophenyl)methanone] | 0.001 to 0.01 µM | > 0.1 µM | 0.1 to 0.5 µM
COc1ccccc1C(O)c1nc(Nc2cc(C)[nH]n2)c2ccccc2n1 (racemic) [Example 63, (R,S)-(2-methoxyphenyl)(4-(5-methyl-1H-pyrazol-3-ylamino)quinazolin-2-yl)methanol] | 0.001 to 0.01 µM | 0.01 to 0.1 µM | 0.1 to 0.5 µM
Fc1ccc(C(F)(F)c2nc(Nc3cc[nH]n3)c3ccc(F)cc3n2)cc1 [Example 21, 2-(difluoro(4-fluorophenyl)methyl)-7-fluoro-N-(1H-pyrazol-3-yl)quinazolin-4-amine] | 0.001 to 0.01 µM | 0.01 to 0.1 µM | 0.1 to 0.5 µM
Cc1cc(Nc2nc(C(=O)c3ccc(F)cc3)nc3ccc(F)cc23)n[nH]1 [Example 53, (6-fluoro-4-(5-methyl-1H-pyrazol-3-ylamino)quinazolin-2-yl)(4-fluorophenyl)methanone] | 0.001 to 0.01 µM | > 0.1 µM | 0.1 to 0.5 µM
Cc1cc(Nc2nc(C(F)(F)c3ccc(F)cc3)nc3cc(CO)ccc23)n[nH]1 [Example 49, (2-(difluoro(4-fluorophenyl)methyl)-4-(5-methyl-1H-pyrazol-3-ylamino)quinazolin-7-yl)methanol] | ≤ 0.001 µM | ≤ 0.01 µM | ≤ 0.1 µM
[2H]C(O)(c1ccc(F)cc1)c1nc(Nc2cc(C)[nH]n2)c2ccccc2n1 (racemic) [Example 72, (R,S) (4-fluorophenyl)(4-(5-methyl-1H-pyrazol-3-ylamino)quinazolin-2-yl)methanol-1-d] | – | – | ≤ 0.1 µM
Cc1cc(Nc2nc(C(=O)c3ccc(F)cc3)nc3c(F)cccc23)n[nH]1 [Example 60, (8-fluoro-4-(5-methyl-1H-pyrazol-3-ylamino)quinazolin-2-yl)(4-fluorophenyl)methanone] | 0.001 to 0.01 µM | > 0.1 µM | 0.1 to 0.5 µM
Cc1cc(Nc2nc(C(O)c3ccc(F)cc3)nc3cc(Br)ccc23)n[nH]1 (stereo not shown) [Example 57, (7-bromo-4-(5-methyl-1H-pyrazol-3-ylamino)quinazolin-2-yl)(4-fluorophenyl)methanol] | 0.001 to 0.01 µM | – | 0.1 to 0.5 µM
Cc1ccc2c(Nc3cc[nH]n3)nc(C(F)(F)c3ccc(F)cc3)nc2c1 [Example 27, 2-(difluoro(4-fluorophenyl)methyl)-7-methyl-N-(1H-pyrazol-3-yl)quinazolin-4-amine] | ≤ 0.001 µM | 0.01 to 0.1 µM | ≤ 0.1 µM
COc1cc(C(=O)c2nc(Nc3cc(C)[nH]n3)c3ccccc3n2)ccc1F [Example 76, (4-fluoro-3-methoxyphenyl)(4-(5-methyl-1H-pyrazol-3-ylamino)quinazolin-2-yl)methanone] | > 0.01 µM | – | –
Cc1cc(Nc2nc(C(O)c3cccc(F)c3)nc3ccccc23)n[nH]1 (stereo not shown) [Example 64, (3-fluorophenyl)(4-(5-methyl-1H-pyrazol-3-ylamino)quinazolin-2-yl)methanol] | 0.001 to 0.01 µM | 0.01 to 0.1 µM | 0.1 to 0.5 µM
Cc1cc(Nc2nc(C(NC=O)c3ccc(F)cc3)nc3ccccc23)n[nH]1 (stereo not shown) [Example 65, N-((4-fluorophenyl)(4-(5-methyl-1H-pyrazol-3-ylamino)quinazolin-2-yl)methyl)formamide] | ≤ 0.001 µM | 0.01 to 0.1 µM | 0.1 to 0.5 µM
Cc1cc(Nc2nc(C(NC3CC3)c3ccc(F)cc3)nc3ccccc23)n[nH]1 (stereo not shown) [Example 69, 2-((cyclopropylamino)(4-fluorophenyl)methyl)-N-(5-methyl-1H-pyrazol-3-yl)quinazolin-4-amine] | ≤ 0.001 µM | 0.01 to 0.1 µM | 0.1 to 0.5 µM
Cc1cc(Nc2nc(C(O)c3ccc(F)c(F)c3)nc3ccccc23)n[nH]1 (racemic) [Example 66, (R,S)-(3,4-difluorophenyl)(4-(5-methyl-1H-pyrazol-3-ylamino)quinazolin-2-yl)methanol] | ≤ 0.001 µM | ≤ 0.01 µM | 0.1 to 0.5 µM
OC(c1ccc(F)cc1)c1nc(Nc2cc[nH]n2)c2ccc(Br)cc2n1 (racemic) [Example 58, (R,S)-(4-(1H-pyrazol-3-ylamino)-7-bromoquinazolin-2-yl)(4-fluorophenyl)methanol] | 0.001 to 0.01 µM | > 0.1 µM | 0.1 to 0.5 µM
COc1ccccc1C(=O)c1nc(Nc2cc(C)[nH]n2)c2ccccc2n1 [Example 62, (2-methoxyphenyl)(4-(5-methyl-1H-pyrazol-3-ylamino)quinazolin-2-yl)methanone] | 0.001 to 0.01 µM | > 0.1 µM | 0.1 to 0.5 µM
CCc1cc(Nc2nc(C(O)c3ccc(F)cc3)nc3ccccc23)n[nH]1 (racemic) [Example 74, (R,S)-(4-(5-ethyl-1H-pyrazol-3-ylamino)quinazolin-2-yl)(4-fluorophenyl)methanol] | ≤ 0.001 µM | – | –
Cc1cc(Nc2nc(C(CS(C)(=O)=O)c3ccc(F)cc3)nc3ccccc23)n[nH]1 (stereo not shown) [Example 70, 2-(1-(4-fluorophenyl)-2-(methylsulfonyl)ethyl)-N-(5-methyl-1H-pyrazol-3-yl)quinazolin-4-amine] | ≤ 0.001 µM | 0.01 to 0.1 µM | 0.1 to 0.5 µM
COc1cc(Nc2nc(C(=O)c3ccc(F)cc3)nc3ccccc23)n[nH]1 [Example 73, (4-fluorophenyl)(4-(5-methoxy-1H-pyrazol-3-ylamino)quinazolin-2-yl)methanone] | ≤ 0.001 µM | 0.01 to 0.1 µM | 0.1 to 0.5 µM
Cc1cc(Nc2nc(C(O)c3ccc(F)cc3)nc3ccc(F)cc23)n[nH]1 (racemic) [Example 54, (R,S)-(6-fluoro-4-(5-methyl-1H-pyrazol-3-ylamino)quinazolin-2-yl)(4-fluorophenyl)methanol] | 0.001 to 0.01 µM | > 0.1 µM | 0.1 to 0.5 µM
Cc1cc(Nc2nc(C(=O)c3ccc(F)cc3)nc3cc(Br)ccc23)n[nH]1 [Example 56, (7-bromo-4-(5-methyl-1H-pyrazol-3-ylamino)quinazolin-2-yl)(4-fluorophenyl)methanone] | 0.001 to 0.01 µM | 0.01 to 0.1 µM | 0.1 to 0.5 µM
Cc1cc(Nc2nc(C(CCN)c3ccc(F)cc3)nc3ccccc23)n[nH]1 (stereo not shown) [Example 71, 2-(3-amino-1-(4-fluorophenyl)propyl)-N-(5-methyl-1H-pyrazol-3-yl)quinazolin-4-amine] | 0.001 to 0.01 µM | 0.01 to 0.1 µM | > 0.5 µM
Cc1cc(Nc2nc(C(O)c3ccc(F)c(O)c3)nc3ccccc23)n[nH]1 (racemic) [Example 78, (R,S)-(2-fluoro-5-(hydroxy(4-(5-methyl-1H-pyrazol-3-ylamino)quinazolin-2-yl)methyl)phenol acetate] | ≤ 0.001 µM | – | –
Cc1cc(Nc2nc(C(CC#N)c3ccc(F)cc3)nc3ccccc23)n[nH]1 (stereo not shown) [Example 68, 3-(4-fluorophenyl)-3-(4-(5-methyl-1H-pyrazol-3-ylamino)quinazolin-2-yl)propanenitrile] | 0.001 to 0.01 µM | 0.01 to 0.1 µM | ≤ 0.1 µM

Source: patent US8349851B2, “JAK kinase modulating compounds and methods of use thereof” (Ambit Biosciences Corp., priority 2009, dated 2013)
